Test results as given in patent US11324832B2, “Tripartite modulators of endosomal G protein-coupled receptors” (Endosome Therapeutics, Inc., priority 2015, dated 2022).
Where a SMILES comes first, the peptide text is derived from it. [ ]: non-standard residue; d: D form. The star is where a group is joined. X1 = CC(C)CCC[C@@H](C)[C@H]1CC[C@H]2[C@@H]3CC[C@H]4C[C@@H](O*)CC[C@]4(C)[C@H]3CC[C@]12C; PEG4 = NCCOCCOCCOCCOCCC(=O)O; PEG3 = NCCOCCOCCOCCC(=O)O

Legend:
[1] = system: NK1R-positive neurons in lamina I of the dorsal horn; test: Cell-attached patch clamp recordings in rat spinal cord slices; assay type: cell-based
Method: To evaluate whether NK1R endosomal signaling mediates this sustained activation, cell-attached patch clamp recordings were made from NKiR-positive neurons in lamina I of the dorsal horn in slices of rat spinal cord. […] These findings support a role for NK1R endocytosis in persistent neuronal excitation.
Parasagittal slices (340-400 μm) were prepared using a vibratome from the lumbar region of the rat spinal cord in ice-cold sucrose-based artificial CSF (sACSF) (mM: 100 sucrose, 63 NaCl, 2.5 KCl, 1.2 NaH2PO4, 1.2 MgCl2, 25 glucose, 25 NaHCO3; 95% O2/5% CO2). Slices were transferred to N-Methyl-D-Glucamine (NMDG)-based recovery ACSF (rACSF) (mM: 93 NMDG, 93 HCl, 2.5 KCl, 1.2 NaH2PO4, 30 NaHCO3, 20 HEPES, 25 glucose, 5 Na ascorbate, 2 thiourea, 3 Na pyruvate, 10 MgSO4, 0.5 CaCl2; 95% O2/5% CO2, 15 min, 34° C.). Slices were transferred to normal ACSF (mM: 125 NaCl, 2.5 KCl, 1.25 NaH2PO4, 1.2 MgCl2, 2.5 CaCl2, 25 glucose, 11 NaHCO3; 95% O2/5% CO2) containing 10 μM MK-801 (45 min, 34° C.), then maintained at RT.
Slices of rat spinal cord were transferred to a recording chamber and superfused with normal ACSF (2 ml·min^−1, 36° C.). […] PS2 was not soluble in the low concentrations of DMSO required for electrophysiology. Large, NKiR-positive, presumed nociceptive lamina I neurons were visually identified as described (Imlach, W. L., et al., Molecular Pharmacology, 2015, 88, 460-428). Spontaneous currents were recorded in cell-attached configuration (Multiclamp 700B, Molecular Devices, Sunnyvale, Calif.), sampled at 10 kHz, high pass filtered at 1 Hz, and capacitatively coupled action potential events were analyzed using Axograph X, V 1.4.4 (Axograph). Patch electrodes (resistance 2.5-3.5 MQ) contained KMES-based internal solution (mM: 105 KMES, 20 NaCl, 5 HEPES, 10 BAPTA, 1.5 MgCl2, 4 MgATP, 0.4 NaGTP, 0.1% biocytin; 285-295 mosmol·l^−1) to facilitate subsequent recordings of action potential properties in whole-cell configuration. Recordings were made in the presence of CNQX (6-cyano-7-nitroquinoxaline-2,3-dione) (10 μM; AMPA/kainate receptor antagonist), picrotoxin (100 μM; GABAA receptor antagonist), strychnine (0.5 μM; glycine and acetylcholine receptor antagonist), and AP5 ((2R)-amino-5-phosphonovaleric acid; (2R)-amino-5-phosphonopentanoate) (100 μM; NMDA receptor antagonist) to minimize presynaptic influences on action potential properties. […] Recordings were sampled at 10 kHz and filtered with a high pass filter at 1 Hz and firing rate was measured in two-minute interval bins. At the end of each cell-attached recording, whole-cell recordings were made in current-clamp mode to confirm retention of normal action potential firing. Data were only included in the analysis if cells had action potential amplitudes that were ≥50 mV above threshold to ensure viable neurons were included. Cells were filled with biocytin and sections were processed to confirm NK1R expression by immunofluorescence. […] The firing time was determined as the duration of the response to last action potential. To assess synaptic transmission, whole-cell configuration recordings were made under control conditions or after exposure to Dy4 or Dy4 inact; a bipolar stimulating electrode was placed at the dorsal root entry zone, and electrically-evoked excitatory postsynaptic currents recorded as described (Imlach, W. L., et al., Molecular Pharmacology, 2015, 88, 460-428).

[2] = target: NK1R (Rattus norvegicus, UniProt P14600); test: BRET of NK1R trafficking (KRas-Venus, Rab5a-Venus) in HEK293 cells; assay type: cell-based; parameters: Full length and truncated 6312 rat HA-NK1R have been described; expressed in transfected cells; host or cells: HEK293 (transient); conditions: inhibitor plus SP
Method: Bioluminescence Resonance Energy Transfer (BRET) was employed to quantitatively assess the proximity of the NK1R to key regulators of GPCR trafficking (βarrs), and resident proteins of plasma (KRas) and early endosomal (Rab5a) membranes in HEK293 cells (FIG. 1A).
HEK293 cells were transfected with the following cDNAs: 1 μg NK1R-RLuc8 or 1 μg CLR-RLuc8+1 μg Myc-RAMP1+4 μg KRas-Venus, 4 μg Rab5a-Venus, 4 μg βarr1-YFP, or 4 μg βarr2-YFP; or 1 μg NK1R+0.5 μg Gαq-RLuc8+1 μg Gβ1+4 μg Gγ2-Venus; or 1 μg NK1R+0.5 μg Gαq-RLuc8+1 μg Gβ1+1 μg Gγ2+4 μg Rab5a-Venus. After 48 h, cells were equilibrated in Hank's balanced salt solution (HBSS) at 37° C., and incubated with the RLuc substrate coelenterazine h (5 μM, 15 min).

[3] = system: motor coordination of mice; test: Rotarod; assay type: in vivo, mouse; conditions: i.t. 50 μM
Method: Mice were acclimatized by 3 trials on 2 successive days before experiments. Mice were trained to remain on the rotarod for three consecutive periods. On the experimental day, three baseline time trials (cut-off 120 s) were recorded. […] After 30 min, mice were placed on the rotarod with accelerating velocity for up to 120 s. Times were recorded in 3 successive trials, and latency time to fall was determined at 30, 90 and 120 min

[4] = 1 μM for 60 min, washed, 60 min antagonist-free, then SP
[5] = 30 μM, preincubated 10 min, SP 1 μM, 2 min

Sequence of NK1R (P14600 whole entry, the tested form may be a part): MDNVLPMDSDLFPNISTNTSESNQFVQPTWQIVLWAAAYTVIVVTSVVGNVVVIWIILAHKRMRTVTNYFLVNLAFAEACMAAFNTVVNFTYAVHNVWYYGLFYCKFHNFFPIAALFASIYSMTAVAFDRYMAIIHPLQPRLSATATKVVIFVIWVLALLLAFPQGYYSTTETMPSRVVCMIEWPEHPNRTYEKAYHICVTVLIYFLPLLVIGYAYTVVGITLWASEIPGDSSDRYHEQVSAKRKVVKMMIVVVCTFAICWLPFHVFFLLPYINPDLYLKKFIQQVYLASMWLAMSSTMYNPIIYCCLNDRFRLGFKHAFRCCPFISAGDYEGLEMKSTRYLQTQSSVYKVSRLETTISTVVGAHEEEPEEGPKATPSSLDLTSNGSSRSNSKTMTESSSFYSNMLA

effect on SP-induced NK1R endocytosis (BRET KRas-Venus decrease, Rab5a-Venus increase) [2] | SMILES | effect on initial SP-evoked excitation [1, 4] | effect on sustained action potential discharge after SP removal [1, 4] | SP-evoked firing rate, response at 2 min ([1]; 1 μM for 60 min, washed, 60 min antagonist-free, then SP, P>0.05) [events. 2 min^−1] | effect on initial SP-evoked excitation [1, 5] | effect on sustained action potential discharge after SP removal [1, 5] | effect on glutaminergic primary afferent synaptic transmission and synaptic rundown ([1]; slices of rat spinal cord) | effect on rotarod latency [3]
– | CC(=O)N[C@@H](CC(=O)O[C@H]1CC[C@@]2(C)[C@@H](CC[C@@H]3[C@@H]2CC[C@]2(C)[C@@H]([C@H](C)CCCC(C)C)CC[C@@H]32)C1)C(=O)NCCOCCOCCOCCOCCC(=O)NCCOCCOCCOCCC(=O)NCCOCCOCCOCCOCCC(=O)N[C@H](CCCNC(=N)N)C(=O)N1CCC[C@H]1C(=O)N[C@@H](CCCCN)C(=O)N1CCC[C@H]1C(=O)N[C@@H](CCC(N)=O)C(=O)N[C@@H](CCC(N)=O)C(=O)N[C@H](Cc1c[nH]c2ccccc12)C(=O)N[C@@H](Cc1ccccc1)C(=O)N[C@H](Cc1c[nH]c2ccccc12)C(=O)N[C@@H](CC(C)C)C(=O)N[C@@H](CC(C)C)C(N)=O [Compound 1] (Ac-D(X1)[PEG4][PEG3][PEG4][dR]PKPQQ[dW]F[dW]LL-NH2) | did not suppress the initial excitation | prevented the action potential discharge | 196.6±81.6 | – | – | – | –
blocked | O=C(N/N=C/c1cc(O)c(O)cc1O)c1cc2ccccc2cc1O [Dy4] | – | – | – | did not affect the initial excitation | prevented the sustained action potential discharge | did not affect | did not affect
blocked | O=C1NC(=NS(=O)(=O)c2cccc3ccccc23)S/C1=C\c1ccc(Br)cc1 [PS2] | – | – | – | – | – | – | did not affect
